Measurements published in ChEMBL document CHEMBL6078666, “Discovery of Novel Coumarin Pleuromutilin Derivatives as Potent Anti-MRSA Agents” (J Med Chem, 2024).
≈ marks a conversion by molar mass, not a printed value.

Experiments:
Assay type in all cases: functional
[1] = tested on: Streptococcus pneumoniae; assay: Ratio of MBC to MIC against penicillin-resistant Streptococcus pneumoniae ATCC 51916
[2] = tested on: Streptococcus pneumoniae; assay: Antibacterial activity against penicillin-intermediate Streptococcus pneumoniae ATCC 49619 assessed as bacterial growth inhibition measured after 20 hrs by broth dilution method
[3] = tested on: Staphylococcus aureus; assay: Antibacterial activity against methicillin-resistant Staphylococcus aureus ATCC 33591 assessed as bacterial growth inhibition measured after 20 hrs by broth dilution method
[4] = tested on: Enterococcus faecium; assay: Antibacterial activity against vancomycin-resistant Enterococcus faecium ATCC 51559 assessed as bacterial growth inhibition measured after 20 hrs by broth dilution method
[5] = tested on: Enterococcus faecium; assay: Ratio of MBC to MIC against vancomycin-resistant Enterococcus faecium ATCC 51559
[6] = tested on: Streptococcus pneumoniae; assay: Antibacterial activity against penicillin-resistant Streptococcus pneumoniae ATCC 51916 assessed as bacterial growth inhibition measured after 20 hrs by broth dilution method
[7] = tested on: Staphylococcus aureus; assay: Antibacterial activity against methicillin-resistant Staphylococcus aureus ATCC 43300 assessed as bacterial growth inhibition measured after 20 hrs by broth dilution method
[8] = tested on: Staphylococcus epidermidis; assay: Ratio of MBC to MIC against Staphylococcus epidermidis ATCC 51625
[9] = tested on: Streptococcus pneumoniae; assay: Ratio of MBC to MIC against penicillin-intermediate Streptococcus pneumoniae ATCC 49619
[10] = tested on: Staphylococcus aureus; assay: Ratio of MBC to MIC against Staphylococcus aureus ATCC 43300
[11] = tested on: Enterococcus faecium; assay: Ratio of MBC to MIC against vancomycin-resistant Enterococcus faecium ATCC 700221
[12] = tested on: Enterococcus faecium; assay: Antibacterial activity against vancomycin-resistant Enterococcus faecium ATCC 700221 assessed as bacterial growth inhibition measured after 20 hrs by broth dilution method
[13] = tested on: Staphylococcus epidermidis; assay: Antibacterial activity against Staphylococcus epidermidis ATCC 51625 assessed as bacterial growth inhibition measured after 20 hrs by broth dilution method
[14] = tested on: Staphylococcus aureus; assay: Ratio of MBC to MIC against methicillin-resistant Staphylococcus aureus ATCC 33591
[15] = tested on: Staphylococcus aureus; assay: Ratio of MBC to MIC against methicillin-resistant Staphylococcus aureus clinical isolate 202405157
[16] = tested on: Enterococcus faecium; assay: Antibacterial activity against vancomycin-resistant Enterococcus faecium clinical isolate 202308456 assessed as bacterial growth inhibition measured after 20 hrs by broth dilution method
[17] = tested on: Staphylococcus epidermidis; assay: Antibacterial activity against methicillin-resistant Staphylococcus epidermidis clinical isolate 202409139 assessed as bacterial growth inhibition measured after 20 hrs by broth dilution method
[18] = tested on: Staphylococcus aureus; assay: Antibacterial activity against methicillin-resistant Staphylococcus aureus clinical isolate 202311772 assessed as bacterial growth inhibition measured after 20 hrs by broth dilution method
[19] = tested on: Staphylococcus aureus; assay: Ratio of MBC to MIC against methicillin-resistant Staphylococcus aureus clinical isolate 202313160
[20] = tested on: Staphylococcus epidermidis; assay: Antibacterial activity against methicillin-resistant Staphylococcus epidermidis clinical isolate 202409454 assessed as bacterial growth inhibition measured after 20 hrs by broth dilution method
[21] = tested on: Staphylococcus aureus; assay: Antibacterial activity against methicillin-resistant Staphylococcus aureus clinical isolate 202405157 assessed as bacterial growth inhibition measured after 20 hrs by broth dilution method
[22] = tested on: Enterococcus faecium; assay: Ratio of MBC to MIC against vancomycin-resistant Enterococcus faecium clinical isolate 202308456
[23] = tested on: Staphylococcus aureus; assay: Antibacterial activity against methicillin-resistant Staphylococcus aureus clinical isolate 202313160 assessed as bacterial growth inhibition measured after 20 hrs by broth dilution method
[24] = tested on: Staphylococcus epidermidis; assay: Ratio of MBC to MIC against methicillin-resistant Staphylococcus epidermidis clinical isolate 202409454
[25] = tested on: Staphylococcus aureus; assay: Ratio of MBC to MIC against methicillin-resistant Staphylococcus aureus clinical isolate 202311772

Row | SMILES | Ratio [1] | MIC [2] | MIC [3] | MIC [4] | Ratio [5] | MIC [6] | MIC [7] | Ratio [8] | Ratio [9] | Ratio [10] | Ratio [11] | MIC [12] | MIC [13] | further results
1 | C=C[C@]1(C)C[C@@H](OC(=O)CSc2cc(=O)oc3ccc(Br)cc23)[C@]2(C)[C@H](C)CC[C@]3(CCC(=O)[C@H]32)[C@@H](C)[C@@H]1O | >4 | 0.25 µg/mL (≈ 0.405 µM) | 0.125 µg/mL (≈ 0.202 µM) | 0.25 µg/mL (≈ 0.405 µM) | >4 | 0.063 µg/mL (≈ 0.102 µM) | 0.25 µg/mL (≈ 0.405 µM) | >4 | 2 | >4 | >4 | 0.25 µg/mL (≈ 0.405 µM) | 0.063 µg/mL (≈ 0.102 µM) | –
2 | C=C[C@]1(C)C[C@@H](OC(=O)CSc2cc(=O)oc3cc(C)ccc23)[C@]2(C)[C@H](C)CC[C@]3(CCC(=O)[C@H]32)[C@@H](C)[C@@H]1O | – | 0.063 µg/mL (≈ 0.114 µM) | 0.031 µg/mL (≈ 0.0561 µM) | 0.063 µg/mL (≈ 0.114 µM) | 2 | – | 0.063 µg/mL (≈ 0.114 µM) | >4 | >4 | 2 | 2 | 0.031 µg/mL (≈ 0.0561 µM) | 0.016 µg/mL (≈ 0.0289 µM) | Ratio [14]: >4; Ratio [15]: 4; MIC [16]: 0.063 µg/mL (≈ 0.114 µM); MIC [17]: 0.125 µg/mL (≈ 0.226 µM); MIC [18]: 0.031 µg/mL (≈ 0.0561 µM); Ratio [19]: 4; MIC [20]: 0.063 µg/mL (≈ 0.114 µM); MIC [21]: 0.125 µg/mL (≈ 0.226 µM); Ratio [22]: 2; MIC [23]: 0.125 µg/mL (≈ 0.226 µM)
3 | C=C[C@]1(C)C[C@@H](OC(=O)CSc2cc(=O)oc3ccc(OC)cc23)[C@]2(C)[C@H](C)CC[C@]3(CCC(=O)[C@H]32)[C@@H](C)[C@@H]1O | – | 0.125 µg/mL (≈ 0.22 µM) | 0.125 µg/mL (≈ 0.22 µM) | 0.125 µg/mL (≈ 0.22 µM) | 2 | 0.125 µg/mL (≈ 0.22 µM) | 0.125 µg/mL (≈ 0.22 µM) | >4 | >4 | 2 | >4 | 0.063 µg/mL (≈ 0.111 µM) | 0.063 µg/mL (≈ 0.111 µM) | Ratio [14]: 4
4 | C=C[C@]1(C)C[C@@H](OC(=O)CSCCOc2cc(=O)oc3ccc([N+](=O)[O-])cc23)[C@]2(C)[C@H](C)CC[C@]3(CCC(=O)[C@H]32)[C@@H](C)[C@@H]1O | >4 | 0.063 µg/mL (≈ 0.1 µM) | 0.125 µg/mL (≈ 0.199 µM) | 0.25 µg/mL (≈ 0.398 µM) | 2 | 0.063 µg/mL (≈ 0.1 µM) | 0.125 µg/mL (≈ 0.199 µM) | >4 | 2 | >4 | 2 | 0.063 µg/mL (≈ 0.1 µM) | 0.031 µg/mL (≈ 0.0494 µM) | –
5 | C=C[C@]1(C)C[C@@H](OC(=O)CSCCOc2cc(=O)oc3cc(Br)ccc23)[C@]2(C)[C@H](C)CC[C@]3(CCC(=O)[C@H]32)[C@@H](C)[C@@H]1O | – | 0.125 µg/mL (≈ 0.189 µM) | 0.125 µg/mL (≈ 0.189 µM) | 0.5 µg/mL (≈ 0.756 µM) | 2 | 0.25 µg/mL (≈ 0.378 µM) | 0.25 µg/mL (≈ 0.378 µM) | >4 | >4 | >4 | 2 | 0.125 µg/mL (≈ 0.189 µM) | 0.125 µg/mL (≈ 0.189 µM) | –
6 | C=C[C@]1(C)C[C@@H](OC(=O)CSCCOc2cc(=O)oc3ccc(OC)cc23)[C@]2(C)[C@H](C)CC[C@]3(CCC(=O)[C@H]32)[C@@H](C)[C@@H]1O | – | 0.125 µg/mL (≈ 0.204 µM) | 0.125 µg/mL (≈ 0.204 µM) | 0.25 µg/mL (≈ 0.408 µM) | 1 | 0.125 µg/mL (≈ 0.204 µM) | 0.25 µg/mL (≈ 0.408 µM) | 4 | >4 | >4 | >4 | 0.063 µg/mL (≈ 0.103 µM) | 0.031 µg/mL (≈ 0.0506 µM) | –
7 | C=C[C@]1(C)C[C@@H](OC(=O)CSc2cc(=O)oc3cc(F)ccc23)[C@]2(C)[C@H](C)CC[C@]3(CCC(=O)[C@H]32)[C@@H](C)[C@@H]1O | 4 | 0.063 µg/mL (≈ 0.113 µM) | 0.031 µg/mL (≈ 0.0557 µM) | 0.031 µg/mL (≈ 0.0557 µM) | 1 | 0.125 µg/mL (≈ 0.225 µM) | 0.063 µg/mL (≈ 0.113 µM) | >4 | 2 | 4 | 1 | 0.031 µg/mL (≈ 0.0557 µM) | 0.031 µg/mL (≈ 0.0557 µM) | Ratio [24]: 2; MIC [16]: 0.031 µg/mL (≈ 0.0557 µM); MIC [17]: 0.125 µg/mL (≈ 0.225 µM); MIC [18]: 0.031 µg/mL (≈ 0.0557 µM); MIC [20]: 0.063 µg/mL (≈ 0.113 µM); MIC [21]: 0.063 µg/mL (≈ 0.113 µM); Ratio [25]: 2; Ratio [22]: 1; MIC [23]: 0.063 µg/mL (≈ 0.113 µM)
8 | C=C[C@]1(C)C[C@@H](OC(=O)CSCCOc2cc(=O)oc3cc(F)ccc23)[C@]2(C)[C@H](C)CC[C@]3(CCC(=O)[C@H]32)[C@@H](C)[C@@H]1O | – | 0.25 µg/mL (≈ 0.416 µM) | 0.125 µg/mL (≈ 0.208 µM) | 0.25 µg/mL (≈ 0.416 µM) | 2 | 0.125 µg/mL (≈ 0.208 µM) | 0.125 µg/mL (≈ 0.208 µM) | >4 | >4 | >4 | >4 | 0.125 µg/mL (≈ 0.208 µM) | 0.031 µg/mL (≈ 0.0516 µM) | –
